# Where “and” joins values, the source holds several entries; their conditions need not be identical. Equal values may be shown once. Read-outs that look alike come from different tables or passages of the source.
# How the values were obtained:
# Male ICR mice = assay: Mice swimming test; assay type: in vivo
# Excerpt: The following method is used for testing the antidepression effect of the compound of the present application. ICR mice or SD rats, gavaged for two successive weeks, were subjected to mice swimming test, mice tail suspension test and rats swimming test. See below for details of the tests and results.
# Male ICR mice weighing 18 g to 20 g were used. They were fed on sterilized standard feed.
# The compound administered in the test was 1-{2-[2,4-bis(trideuteriomethyl)phenylsulfanyl]phenyl}piperazine hydrobromic acid salt (XX for short). Vortioxetine (YY for short) was used as a control sample. Venlafaxine HCl (from Wyeth, USA) was used as a positive control.
# Vortioxetine (15 mg) was combined with 10% hydroxypropyl-β-cyclodextrin to form a solution of 100 mL and was administered at daily dose of 3 mg/kg. 1-{2-[2,4-bis(trideuteriomethyl)phenylsulfanyl]phenyl}piperazine hydrobromic acid salt (15 mg and 7.5 mg) was combined with 10% hydroxypropyl-β-cyclodextrin to form two solutions of 100 mL and was administered at daily doses of 3 mg/kg and 1.5 mg/kg, respectively. Venlafaxine HCl (75 mg) was combined with 0.5% CMC-Na to form a solution of 100 mL and was administered at daily dose of […].
# A recording and analysis system for small-animal behavior (Noldus) was used.
# All the eighty mice were subjected to prescreening one day before the administration. The mice, fasted for 4 hours were put in a round glass tank (ø 14 cm×h 20 cm, with water of 10 cm depth and at a temperature of 25° C.) to swim. […] The whole swimming course was recorded by the video and the data were collected and analyzed automatically by Noldus software.
# The forty qualified mice were divided into 4 groups, each of which had 10 mice, according to the Excel random grouping.
# The medicaments were administered to each group by gavage with the amount of 0.2 ml per 10 g of body weight, once a day for 14 successive days. One hour later after the last oral administration, the mice were allowed to swim for 6 min. The video recorded the whole swimming course, and the Noldus software automatically collected and analyzed the data.
# The data was given as “average±standard deviation” (x±s). One-way analysis of variance (one-way ANOVA) was used for data difference statistics. Differences among the groups were determined by P<0.05.
# [1] = Pharmacokinetic test in rats, gavage administration; assay type: in vivo, SD rats; details: for bioavailability: read-out: F % (absolute bioavailability), Mean ± SD;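 as to AUC0-t (area under the plasma concentration-time curve from zero to the last sampling time): plasma area under the curve AUC0-1 in μg·h/L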
# Experimental: The preferred compound of the present disclosure was assessed in rats for its pharmacokinetic profile.
# SD rats, male and female, weighing 150 to 250 g
# Mobile phase: 10 mM ammonium formate aqueous solution:methanol=15:85
# The ionization source was electrospray ionization source. The detection mode was positive mode. Multiple reaction monitoring (MRM) was used as the scanning mode. The ion reaction for the quantitative analysis was the following: m/z was 305.2\150.0 for XX, and 256.1\167.1 for diphenhydramine (the internal standard).
# XX or YY was orally administered with single dose of 20 mg/kg to six SD rats, one half of which were male and the other half was female. XX or YY was dissolved in 10% hydroxypropyl-β-cyclodextrin. […]
# After the blood collection, the tubes were immediately gently turned upside down at least five times to ensure sufficient mixing, and placed on ice. Heparin was added for anticoagulation. The samples were centrifuged at 8000 rpm for 5 min to separate serum from erythrocyte. The serum was transferred with a pipettor to 2 mL polypropylene (PP) tubes, which were marked with the name of the compound and the time points, and stored in a refrigerator at −40° C. before LC-MS analysis. Samples with high concentrations were diluted with rat blank plasma.
# 2.5 μL of Meth-H2O and 5 μL of the internal standard solution (20 ng/mL, IS) were added to 50 μL of the plasma. Subsequently, 150 μL of methanol was added to the mixture to precipitate protein and the samples were then centrifuged at 13000 rpm for 5 min. The upper organic phase was taken out, filtrated with a 0.22 μM microporous membrane, and 2 μL of the sample was injected for the LC-MS analysis.
# [2] = single oral dose of [14C]-labeled vortioxetine; cited from earlier work
# [3] = rats, oral 20 mg/kg, individual rats 1-6, 20 mg/kg
smiles,measurement,setting,value
"Cc1ccc(Sc2ccccc2N2CCNCC2)c(C)c1 [YY, 1-[2-(2,4-dimethyl-phenylsulfanyl)-phenyl]piperazine]",effect on length of time that the mice stopped swimming vs blank control,"Male ICR mice; 3 mg/kg gavage, two successive weeks",did not shorten
same,Duration without Movement within the Last 4 min of the Whole 6 min,"Male ICR mice; mice, gavage once a day for 14 days, 3 mg/kg, n = 10, x ± s",199.6 ± 26.1 s
same,Concentrations in Plasma of Rats after Oral Administration,"[1]; 20 mg/kg oral, 10 min (Table 5: 0.167 h) after administration, individual rats 1-6",17.9 ng/mL and 9.42 ng/mL and 28.1 ng/mL and 14.3 ng/mL and 38.4 ng/mL and 6.11 ng/mL
same,Concentrations in Plasma of Rats after Oral Administration,"[1]; 20 mg/kg oral, 0.5 h, individual rats 1-6",86.5 ng/mL and 38.1 ng/mL and 52.3 ng/mL and 49.7 ng/mL
same,Concentrations in Plasma of Rats after Oral Administration,"[1]; 20 mg/kg oral, 1 h, individual rats 1-6",123 ng/mL and 65.5 ng/mL and 77.4 ng/mL and 81.1 ng/mL and 93.2 ng/mL and 55.6 ng/mL
same,Concentrations in Plasma of Rats after Oral Administration,"[1]; 20 mg/kg oral, 1.5 h, individual rats 1-6",154 ng/mL and 85.2 ng/mL and 82.9 ng/mL and 89.2 ng/mL and 73.2 ng/mL and 54.9 ng/mL
same,Concentrations in Plasma of Rats after Oral Administration,"[1]; 20 mg/kg oral, 2 h, individual rats 1-6",182 ng/mL and 68.3 ng/mL and 91.8 ng/mL and 81.9 ng/mL and 72 ng/mL and 56.4 ng/mL
same,Concentrations in Plasma of Rats after Oral Administration,"[1]; 20 mg/kg oral, 3 h, individual rats 1-6",120 ng/mL and 48.2 ng/mL and 58.3 ng/mL and 55.9 ng/mL and 42.9 ng/mL and 34.2 ng/mL
same,Concentrations in Plasma of Rats after Oral Administration,"[1]; 20 mg/kg oral, 4 h, individual rats 1-6",93.6 ng/mL and 46.9 ng/mL and 52.9 ng/mL and 55.2 ng/mL and 42.1 ng/mL and 29.9 ng/mL
same,Concentrations in Plasma of Rats after Oral Administration,"[1]; 20 mg/kg oral, 6 h, individual rats 1-6",57.4 ng/mL and 37.7 ng/mL and 36.7 ng/mL and 33.5 ng/mL and 30.5 ng/mL and 22.4 ng/mL
same,Concentrations in Plasma of Rats after Oral Administration,"[1]; 20 mg/kg oral, 8 h, individual rats 1-6",27.5 ng/mL and 16.7 ng/mL and 17.7 ng/mL and 16.3 ng/mL and 18.8 ng/mL and 11.3 ng/mL
same,Concentrations in Plasma of Rats after Oral Administration,"[1]; 20 mg/kg oral, 10 h, individual rats 1-6",14.5 ng/mL and 8.39 ng/mL and 10.9 ng/mL and 8.32 ng/mL and 9.4 ng/mL and 7.24 ng/mL
same,Concentrations in Plasma of Rats after Oral Administration,"[1]; 20 mg/kg oral, 12 h, individual rats 1-6",7.3 ng/mL and 4.87 ng/mL and 4.29 ng/mL and 7.01 ng/mL and 4.1 ng/mL and 3.17 ng/mL
same,Concentrations in Plasma of Rats after Oral Administration,"[1]; 20 mg/kg oral, 14 h, individual rats 1-6",7.19 ng/mL and 2.5 ng/mL and 3.69 ng/mL and 4.35 ng/mL and 3.79 ng/mL and 2.95 ng/mL
same,Concentrations in Plasma of Rats after Oral Administration,"[1]; 20 mg/kg oral, 24 h, individual rats 1-6",0.728 ng/mL and 0.431 ng/mL and 0.716 ng/mL and 0.374 ng/mL and 0.394 ng/mL and 1.21 ng/mL
same,MRT inf,"[1]; both sexes, SD, rat, plasma, po, 20 mg/kg, rats, oral 20 mg/kg, individual rats 1-6, read-out: MRT0-∞",4.49 h
same,half-life,"[1]; both sexes, SD, rat, plasma, po, 20 mg/kg, rats, oral 20 mg/kg, individual rats 1-6, read-out: t1/2 (converted)",3.05 h
same,AUC(0-t),"[1]; both sexes, SD, rat, plasma, po, 20 mg/kg, rats, oral 20 mg/kg, n = 6, read-out: AUC0-1, Mean ± SD",489 ± 180 ng·h/mL
same,AUC(0-inf),"[1]; both sexes, SD, rat, plasma, po, 20 mg/kg, rats, oral 20 mg/kg, n = 6, read-out: AUC0-∞, Mean ± SD",491 ± 181 ng·h/mL
same,Cmax,"[1]; both sexes, SD, rat, plasma, po, 20 mg/kg, rats, oral 20 mg/kg, n = 6, read-out: Cmax, Mean ± SD",99.6 ± 42.6 ng/mL
same,MRT inf,"[1]; both sexes, SD, rat, plasma, po, 20 mg/kg, rats, oral 20 mg/kg, n = 6, read-out: MRT0-∞, Mean ± SD",4.75 ± 0.31 h
same,half-life,"[1]; both sexes, SD, rat, plasma, po, 20 mg/kg, rats, oral 20 mg/kg, n = 6, read-out: t1/2, Mean ± SD (converted)",2.96 ± 0.43 h
same,concentration at 10 min,"[1]; both sexes, Sprague-Dawley, rat, plasma, oral, 20 mg/kg, 20 mg/kg oral, 10 min (Table 5: 0.167 h), mean of 6 rats, read-out: Concentrations in Plasma of Rats after Oral Administration, Mean ± SD",19 ± 12.2 ng/mL
same,concentration at 0.5 h,"[1]; both sexes, Sprague-Dawley, rat, plasma, oral, 20 mg/kg, 20 mg/kg oral, 0.5 h, mean of 6 rats, read-out: Concentrations in Plasma of Rats after Oral Administration, Mean ± SD",54.9 ± 16.8 ng/mL
same,concentration at 1 h,"[1]; both sexes, Sprague-Dawley, rat, plasma, oral, 20 mg/kg, 20 mg/kg oral, 1 h, mean of 6 rats, read-out: Concentrations in Plasma of Rats after Oral Administration, Mean ± SD",82.6 ± 23.6 ng/mL
same,concentration at 1.5 h,"[1]; both sexes, Sprague-Dawley, rat, plasma, oral, 20 mg/kg, 20 mg/kg oral, 1.5 h, mean of 6 rats, read-out: Concentrations in Plasma of Rats after Oral Administration, Mean ± SD",89.9 ± 33.7 ng/mL
same,concentration at 2 h,"[1]; both sexes, Sprague-Dawley, rat, plasma, oral, 20 mg/kg, 20 mg/kg oral, 2 h, mean of 6 rats, read-out: Concentrations in Plasma of Rats after Oral Administration, Mean ± SD",92.1 ± 45.7 ng/mL
same,concentration at 3 h,"[1]; both sexes, Sprague-Dawley, rat, plasma, oral, 20 mg/kg, 20 mg/kg oral, 3 h, mean of 6 rats, read-out: Concentrations in Plasma of Rats after Oral Administration, Mean ± SD",59.9 ± 30.7 ng/mL
same,concentration at 4 h,"[1]; both sexes, Sprague-Dawley, rat, plasma, oral, 20 mg/kg, 20 mg/kg oral, 4 h, mean of 6 rats, read-out: Concentrations in Plasma of Rats after Oral Administration, Mean ± SD",53.4 ± 21.6 ng/mL
same,concentration at 6 h,"[1]; both sexes, Sprague-Dawley, rat, plasma, oral, 20 mg/kg, 20 mg/kg oral, 6 h, mean of 6 rats, read-out: Concentrations in Plasma of Rats after Oral Administration, Mean ± SD",36.4 ± 11.7 ng/mL
same,concentration at 8 h,"[1]; both sexes, Sprague-Dawley, rat, plasma, oral, 20 mg/kg, 20 mg/kg oral, 8 h, mean of 6 rats, read-out: Concentrations in Plasma of Rats after Oral Administration, Mean ± SD",18.1 ± 5.3 ng/mL
same,concentration at 10 h,"[1]; both sexes, Sprague-Dawley, rat, plasma, oral, 20 mg/kg, 20 mg/kg oral, 10 h, mean of 6 rats, read-out: Concentrations in Plasma of Rats after Oral Administration, Mean ± SD",9.79 ± 2.62 ng/mL
same,concentration at 12 h,"[1]; both sexes, Sprague-Dawley, rat, plasma, oral, 20 mg/kg, 20 mg/kg oral, 12 h, mean of 6 rats, read-out: Concentrations in Plasma of Rats after Oral Administration, Mean ± SD",5.12 ± 1.67 ng/mL
same,concentration at 14 h,"[1]; both sexes, Sprague-Dawley, rat, plasma, oral, 20 mg/kg, 20 mg/kg oral, 14 h, mean of 6 rats, read-out: Concentrations in Plasma of Rats after Oral Administration, Mean ± SD",4.08 ± 1.66 ng/mL
same,concentration at 24 h,"[1]; both sexes, Sprague-Dawley, rat, plasma, oral, 20 mg/kg, 20 mg/kg oral, 24 h, mean of 6 rats, read-out: Concentrations in Plasma of Rats after Oral Administration, Mean ± SD",0.64 ± 0.32 ng/mL
same,bioavailability,"[1]; both sexes, Sprague-Dawley, rat, plasma, oral, 20 mg/kg, rats, oral 20 mg/kg vs iv 2 mg/kg, n = 6",7.51 ± 2.77%
same,AUC(0-t),"[1]; both sexes, Sprague-Dawley, rat, plasma, po, 20 mg/kg, gavage administration of 20 mg/kg, rats, read-out: AUC0-t in the rats' plasma",489 ± 180 ng·h/mL
same,bioavailability,"[1]; both sexes, Sprague-Dawley, rat, plasma, po, 20 mg/kg, rats, oral 20 mg/kg vs iv 2 mg/kg, n = 6",7.51 ± 2.77%
same,F %,"[1]; rats, oral 20 mg/kg vs iv 2 mg/kg, individual rats 1-6",12.83% and 6.36% and 7.40% and 7.17% and 6.55% and 4.75%
same,AUC0-t (area under the plasma concentration-time curve from zero to the last sampling time),[1]; [3],836.1 ng·h/mL and 415.8 ng·h/mL and 480.4 ng·h/mL and 467.8 ng·h/mL and 427.0 ng·h/mL and 309.2 ng·h/mL
same,AUC0-∞,[1]; [3],839.3 ng·h/mL and 416.2 ng·h/mL and 484 ng·h/mL and 469.3 ng·h/mL and 428.7 ng·h/mL and 310.6 ng·h/mL
same,Cmax,[1]; [3],182.0 ng/mL and 85.2 ng/mL and 91.8 ng/mL and 89.2 ng/mL and 93.2 ng/mL and 56.4 ng/mL
same,MRT0-∞,[1]; [3],4.65 h and 4.73 h and 4.67 h and 4.60 h and 5.35 h
same,t1/2,[1]; [3],2.20 h and 3.50 h and 2.83 h and 3.06 h and 3.10 h
same,radioactive metabolites recovered in the feces,[2],~26%
same,radioactive metabolites recovered in the urine,[2],approximately 59%

# Reference: patent US9896423B2, “Deuterium substituted 1-[2-(2,4-dimethyl-phenylsulfanyl)-phenyl]piperazine compound or derivatives thereof, and pharmaceutical composition and use thereof” (Jiangsu Jibeier Pharmaceutical Co. Ltd., priority 2014, dated 2018)
